Earlier results, collected in patent publication US20050074443A1, “Methods of attenuating autoimmune disease and compositions useful therefor” (priority 2003, published 2005).

System: experimental autoimmune encephalomyelitis
Details: exogenous administration, mouse model

C=C1/C(=C\C=C2/CCC[C@]3(C)[C@@H]([C@H](C)CCCC(C)(C)O)CC[C@@H]23)C[C@@H](O)C[C@@H]1O [1,25-dihydroxyvitamin D3]
effect on experimental autoimmune encephalomyelitis: can prevent experimental autoimmune encephalomyelitis
